Experimental data taken from ChEMBL document CHEMBL6121046, “Discovery of Novel Hydrazide-Based HDAC3 Inhibitors as Epigenetic Immunomodulators for Cancer Immunotherapy” (J Med Chem, 2025).
The source made the active and inactive calls. The calls are words filed in the database; no cut-off is given here.

Assays:
[1] = AUC (0 to infinity) in Sprague-Dawley rat at 20 mg/kg, iv measured upto 12 hrs by LC-MS/MS analysis; format: ADME, organism-based; conditions: in vivo
[2] = system: MC-38; test: Induction of mitochondrial membrane damage in mouse MC38 cells assessed as decrease in JC-1 aggregation by measuring red fluorescence at 2 uM measured after 48 hrs (reference value: 96.70%); format: functional; design: scale not given: the % may be the effect or the level left
[3] = system: MC-38; test: In vivo antitumor activity against mouse MC38 cells allografted in C57BL/6 mouse assessed as decrease in […] positive cells in tumor in presence of NP19 PD-L1 inhibitor at 50 mg/kg, po treated 5 days after cell inoculation 19 th day by immunofluorescence analysis; format: functional, organism-based; conditions: time 15.0 day
[4] = system: Mus musculus; test: (§1) Immunomodulatory effect in C57BL/6 mouse allografted mouse MC38 cells assessed as increase in tumor infiltrating lymphocytes by measuring increase in CD8+ T helper cells in mouse spleen in presence of NP19 PD-L1 inhibitor at 50 mg/kg, po treated 5 days after cell inoculation 19 th day by flow cytometry analysis (reference value: 13.6%); format: functional; conditions: time 15 day
[5] = Toxicity in C57BL/6 mouse allografted with mouse MC38 cells assessed as pathological changes in kidney at 50 mg/kg, po treated 5 days after cell inoculation 19 th day by hematoxylin and eosin analysis; format: organism-based; conditions: in vivo, 360 h, time 15 day
[6] = system: MC-38; test: Induction of ROS production in mouse MC38 cells assessed as increase in intracellular ROS level measured after 48 hrs by flow cytometry; format: functional, cell-based
[7] = system: MC-38; test: Induction of mitochondrial membrane damage in mouse MC38 cells assessed as decrease in JC-1 aggregation by measuring red fluorescence at 8 uM measured after 48 hrs (reference value: 96.70%); format: functional; design: scale not given: the % may be the effect or the level left
[8] = Volume of distribution at steady state in Sprague-Dawley rat at 20 mg/kg, po measured upto 12 hrs by LC-MS/MS analysis; format: ADME, organism-based; conditions: in vivo
[9] = system: Mus musculus; test: as §1, with “CD4+” for “CD8+”, “tumor” for “mouse spleen”, “2.57%)” for “13.6%)”; format: functional; conditions: time 15 day
[10] = system: MC-38; test: In vivo antitumor activity against mouse MC38 cells allografted in C57BL/6 mouse assessed as apoptosis in tumor in presence of NP19 PD-L1 inhibitor at 50 mg/kg, po treated 5 days after cell inoculation 19 th day relative to control; format: functional, organism-based; conditions: time 15.0 day
[11] = Volume of distribution at steady state in Sprague-Dawley rat at 20 mg/kg, iv measured upto 12 hrs by LC-MS/MS analysis; format: ADME, organism-based; conditions: in vivo, read-out: Vdss
[12] = Toxicity in C57BL/6 mouse allografted with mouse MC38 cells assessed as pathological changes in liver at 50 mg/kg, po treated 5 days after cell inoculation 19 th day by hematoxylin and eosin analysis; format: organism-based; conditions: in vivo, 360 h, time 15 day
[13] = Toxicity in C57BL/6 mouse allografted with mouse MC38 cells assessed as body weight loss in presence of NP19 PD-L1 inhibitor at 50 mg/kg, po treated 5 days after cell inoculation 19 th day; format: organism-based; conditions: in vivo, 360 h, time 15 day
[14] = system: Mus musculus; test: (§2) Immunomodulatory effect in C57BL/6 mouse allografted mouse MC38 cells assessed as increase in tumor infiltrating lymphocytes by measuring increase in CD4+ T helper cells in mouse blood at 50 mg/kg, po treated 5 days after cell inoculation 19 th day by flow cytometry analysis (reference value: 0.27%); format: functional; conditions: time 15 day
[15] = system: MC-38; test: Induction of mitochondrial membrane damage in mouse MC38 cells assessed as increase in JC-1 monomers by measuring green fluorescence at 2 uM measured after 48 hrs (reference value: 3.13%); format: functional
[16] = Toxicity in C57BL/6 mouse allografted with mouse MC38 cells assessed as aspartate aminotransferase (AST) level in serum at 50 mg/kg, po treated 5 days after cell inoculation 19 th day; format: organism-based; conditions: in vivo, 360 h, time 15 day
[17] = system: Mus musculus; test: (§3) Immunomodulatory effect in C57BL/6 mouse allografted mouse MC38 cells assessed as increase in tumor infiltrating lymphocytes by measuring increase in CD4+ T helper cells in tumor at 50 mg/kg, po treated 5 days after cell inoculation 19 th day by flow cytometry analysis (reference value: 2.57%); format: functional; conditions: time 15 day
[18] = system: MC-38; test: In vivo antitumor activity against mouse MC38 cells allografted in C57BL/6 mouse assessed as increase in Tunel-positive cells in tumor at 50 mg/kg, po treated 5 days after cell inoculation 19 th day by immunofluorescence analysis; format: functional, organism-based; conditions: time 15.0 day
[19] = system: Mus musculus; test: as §2, with “blood in presence of NP19 PD-L1 inhibitor” for “blood”; format: functional; conditions: time 15 day
[20] = system: Mus musculus; test: as §1, with “spleen” for “spleen in presence of NP19 PD-L1 inhibitor”; format: functional; conditions: time 15 day
[21] = system: Mus musculus; test: Induction of PD-L1 expression in tumor in C57BL/6 mouse allografted with mouse MC38 cells in presence of NP19 PD-L1 inhibitor at 50 mg/kg, po treated 5 days after cell inoculation 19 th day by immunofluorescence analysis; format: functional, organism-based; conditions: time 15.0 day
[22] = system: MC-38; test: Induction of mitochondrial membrane damage in mouse MC38 cells assessed as decrease in JC-1 aggregation by measuring red fluorescence at 4 uM measured after 48 hrs (reference value: 96.70%); format: functional; design: scale not given: the % may be the effect or the level left
[23] = system: MC-38; test: In vivo antitumor activity against mouse MC38 cells allografted in C57BL/6 mouse assessed as tumor growth inhibition at 50 mg/kg, po treated 5 days after cell inoculation 19 th day relative to control; format: functional; conditions: MC-38, 360 h, time 15 day, read-out: TGI
[24] = Cmax in Sprague-Dawley rat at 20 mg/kg, iv measured upto 12 hrs by LC-MS/MS analysis; format: ADME, organism-based; conditions: in vivo
[25] = system: Mus musculus; test: as §3, with “cells in mouse spleen at 50” for “cells in tumor at 50”, “(reference value: 10.8%)” for “(reference value: 2.57%)”; format: functional; conditions: time 15 day
[26] = system: MC-38; test: Induction of mitochondrial membrane damage in mouse MC38 cells assessed as increase in JC-1 monomers by measuring green fluorescence at 8 uM measured after 48 hrs (reference value: 3.13%); format: functional
[27] = system: MC-38; test: In vivo antitumor activity against mouse MC38 cells allografted in C57BL/6 mouse assessed as increase in Tunel-positive cells in tumor in presence of NP19 PD-L1 inhibitor at 50 mg/kg, po treated 5 days after cell inoculation 19 th day by immunofluorescence analysis; format: functional, organism-based; conditions: time 15.0 day
[28] = Toxicity in C57BL/6 mouse allografted with mouse MC38 cells assessed as alkaline phosphatase (AKP) level in serum at 50 mg/kg, po treated 5 days after cell inoculation 19 th day; format: organism-based; conditions: in vivo, 360 h, time 15 day
[29] = system: Mus musculus; test: as §1, with “lymph nodes” for “spleen”, “20.3%)” for “13.6%)”; format: functional; conditions: time 15 day
[30] = Cmax in Sprague-Dawley rat at 20 mg/kg, po measured upto 12 hrs by LC-MS/MS analysis; format: ADME, organism-based; conditions: in vivo
[31] = MRT (0 to infinity) in Sprague-Dawley rat at 20 mg/kg, iv measured upto 12 hrs by LC-MS/MS analysis; format: ADME, organism-based; conditions: in vivo
[32] = AUC (0 to t) in Sprague-Dawley rat at 20 mg/kg, iv measured upto 12 hrs by LC-MS/MS analysis; format: ADME, organism-based; conditions: in vivo

Question: For CCCNNC(=O)c1ccc(CNC(=O)c2cnc(-c3ccc4occc4c3)[nH]2)cc1, which AUC [1] is on record?
Answer: 1249.2 ng·h/mL

Question: What about the Activity [2] of the same compound?
Answer: 91.43%

Question: What about the Activity [3] of the same compound?
Answer: Active

Question: What about the Activity [4] of the same compound?
Answer: 17.4%

Question: What about the Activity [5] of the same compound?
Answer: Non-toxic

Question: And the Activity [6]?
Answer: Dose-dependent-effect

Question: And the Activity [7]?
Answer: 71.37%

Question: And the Vdss [8]?
Answer: 72.81 L/kg

Question: What about the Activity [9] of the same compound?
Answer: 3.11%

Question: And the Activity [10]?
Answer: Active

Question: What about the Vd [11] of the same compound?
Answer: 2.35 L/kg

Question: And the Activity [12]?
Answer: Non-toxic

Question: And the Activity [13]?
Answer: Non-toxic

Question: What about the Activity [14] of the same compound?
Answer: 0.84%

Question: What about the Activity [15] of the same compound?
Answer: 8%

Question: What about the Activity [16] of the same compound?
Answer: Non-toxic

Question: What about the Activity [17] of the same compound?
Answer: 1.72%

Question: And the Activity [18]?
Answer: Active

Question: What about the Activity [19] of the same compound?
Answer: 0.98%

Question: What about the Activity [20] of the same compound?
Answer: 14.1%

Question: What about the Activity [21] of the same compound?
Answer: Active

Question: And the Activity [22]?
Answer: 72.13%

Question: And the inhibition in vivo at 50 mg/kg [23]?
Answer: 63%

Question: What about the Cmax [24] of the same compound?
Answer: 1210 ng/mL

Question: What about the Activity [25] of the same compound?
Answer: 12.9%

Question: And the Activity [26]?
Answer: 28.37%

Question: And the Activity [27]?
Answer: Active

Question: What about the Activity [28] of the same compound?
Answer: Non-toxic

Question: And the Activity [29]?
Answer: 31.6%

Question: And the Cmax [30]?
Answer: 347 ng/mL

Question: And the MRT inf [31]?
Answer: 1.2 h

Question: And the AUC(0-t) at 12 h [32]?
Answer: 1250 ng·h/mL
